# Assay: gradient 5% acetonitrile 3 min, to 50% in 2 min, to 85% in 15 min, held 3 min, 100 µL/min
# Details: column: Zorbax Extend-C18 2.1 x 50 mm; eluents: water / acetonitrile, 0.1% formic acid
# Method in brief: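 Pure standards were analyzed in mixtures of ~100 molecules using HPLC coupled to a quadrupole time-of-flight mass spectrometer, in both positive and negative ionization mode. Separation used a Zorbax Extend-C18 column (2.1 × 50 mm, 1.8 μm) at 100 μL/min, with water and acetonitrile each containing 0.1% formic acid. Dead and dwell volumes were 40 μL and 900 μL, and data were collected over 3 months. Retention time was read from computationally picked adduct peaks, each inspected manually.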
row,Compound,RP-LC retention time
1,O=C(CN1CCN(C(=O)Nc2ccc(Cl)cc2)CC1=O)NC1CCCCC1,724 s
2,O=C(NC1CCCCC1)c1ncoc1-c1ccccc1C(=O)N1CCCC1,798 s
3,Cc1ccsc1C(=O)Nc1cccn2c(C3CCC3)nnc12,805 s
4,OC(c1cc(C(F)(F)F)nc2c(C(F)(F)F)cccc12)C1CCCCN1 (stereo not drawn),754 s
5,CC(C)(C)c1noc(-c2cccn3c(CC(=O)NC4CCCCC4)nnc23)n1,754 s
6,COc1cc(NC(=O)C2CCN(C(=O)C3Sc4ccccc4NC3=O)CC2)cc(OC)c1OC (stereo not drawn),707 s
7,Cn1nc(C(=O)Nc2ccc(S(N)(=O)=O)cc2)ccc1=O,582 s
8,CCOC1CCN(C(=O)Nc2ccccc2C)CC1,732 s
9,CCN1C(=O)COc2cc(-c3noc(C(=O)NCCC4=CCCCC4)n3)ccc21,1120 s
10,CC(=O)c1cccc(N2C(=O)COc3ccc(Br)cc3C2C(=O)NC2CCCC2)c1 (stereo not drawn),913 s
11,O=C(NCc1csc(-c2ccccc2)n1)C1CCN(S(=O)(=O)c2ccccc2F)CC1,914 s
12,CCc1ccc(C2=C(C)C(N3CCCN(C(=O)NCCOC)CC3)=NS2(=O)=O)cc1,731 s
13,CNC(=O)c1cc(COc2ccc(NC(=O)c3ccc(Br)cc3)cc2)on1,830 s
14,Cc1ccc(CCNC(=O)c2ncn3c2C(=O)N(C2CC2)C(C)(C(=O)NC2CCCC2)C3)cc1 (stereo not drawn),795 s
15,O=C(NCc1nc(-c2ccccc2)no1)c1csc(-c2cnccn2)n1,779 s
16,Cc1ccc(NC(=O)Cn2ncc3c(c2=O)N(CC2CC2)C(=O)CS3)cc1C,812 s
17,O=C(c1cccc(C(F)(F)F)c1)N1CCN(c2nc(CN3CCCCC3)cs2)CC1,684 s
18,CCn1c(=O)c(C)nc2cc(-c3noc(C4CC(=O)N(c5ccccc5)C4)n3)ccc21 (stereo not drawn),837 s
19,O=S(=O)(Nc1ccc(F)cc1F)c1ccc(-c2nnc(C3CCC3)o2)o1,879 s
20,Cc1noc(/C=C/c2ccc(S(=O)(=O)N3CCCCC3)s2)c1NC(=O)C1CC1,901 s
21,O=C(Nc1nccs1)c1cc2cc([N+](=O)[O-])ccc2s1,821 s
22,CCOC(=O)Cc1csc2nc(-c3ccccc3)nn12,960 s

row,Compound,RP-LC retention time
1,COc1ccc(C2C(C(=O)O)CCC(=O)N2c2ccc(OC)cc2)cc1 (stereo not drawn),656 s
2,CCOC(=O)C1CCN(S(=O)(=O)c2ccc3c(c2)-c2oncc2CO3)CC1,908 s
3,Cc1cccc(C(=O)NCCc2cn(CC(C)C)c3ncccc23)c1,827 s
4,CCn1cc(CCN2CCN(S(=O)(=O)c3cccs3)CC2)c2cccnc21,962 s
5,COc1ccc(C)cc1NC(=O)C1CCCN1S(=O)(=O)c1cc2c(cc1C)NC(=O)C(C)O2 (stereo not drawn),880 s
6,CCS(=O)(=O)N1CC(=O)N(c2ccc(C)c(C)c2)C(C)(C(=O)NCc2ccc(F)cc2)C1 (stereo not drawn),846 s
7,CCn1c(N2CCCC(C(=O)NCC3CCN(Cc4cc(C)ccc4C)CC3)C2)cc(=O)n(C)c1=O (stereo not drawn),665 s
8,Cc1ccc2[nH]cc(CCN3CC(C(=O)NCCc4ccc(F)cc4)CC3=O)c2c1 (stereo not drawn),821 s
9,O=C(NCc1ccc(F)cc1)C1CCc2nc(N3CCOCC3)ncc2C1 (stereo not drawn),808 s
10,O=C(CN1C(=O)CCCc2cc(S(=O)(=O)N3CCCCCC3)ccc21)Nc1cccc(F)c1,988 s
11,Cc1ccccc1NC(=O)/C=N/O,636 s
12,O=S(=O)(NCCc1noc(-c2ccccc2)n1)c1ccc2c(c1)OCCO2,883 s
13,Cc1cc(N(C)C)n2nc(CN3CCN(c4ccccc4C)CC3)nc2n1,633 s
14,C[C@H]1CN(C(=O)c2c[nH]c3ccccc23)C[C@@H]1c1nc(-c2cccnc2)no1,711 s
15,COc1ccc(C2C(C(=O)NCCN(C)C)c3ccccc3C(=O)N2C)cc1OC (stereo not drawn),700 s
16,O=C1c2ccccc2C(=O)c2c(O)c(NCCNCCO)cc(O)c21,653 s
17,Cc1nnc(-c2ccc(=O)n(CC(=O)NCc3ccc(F)c(Cl)c3)c2)o1,672 s
18,O=C(Cn1c(=O)c2nncn2c2ncccc21)N1CCN(c2cccc(Cl)c2)CC1,750 s
19,O=C(CN1C(=O)C2CCCCN2c2ccc(S(=O)(=O)N3CCCC3)cc21)NCc1cccnc1 (stereo not drawn),646 s
20,COc1ccc(N2CC(c3noc(-c4cccc(Cl)c4)n3)CC2=O)cc1OC (stereo not drawn),944 s
21,CCOC(=O)N1CCC(NC(=O)C2CCCN(Cc3nc(-c4cccnc4)no3)C2)CC1 (stereo not drawn),559 s
22,O=C(c1ccc(F)cc1F)N1CCC(n2cnnc2C2CC2)CC1,633 s

row,Compound,RP-LC retention time
1,O=C(c1sc2ncccc2c1-n1cccc1)N1CCN(c2ncccn2)CC1,866 s
2,Cn1c(=O)c2c(Nc3ccc(C(F)(F)F)cc3)ccnc2n(C)c1=O,1010 s
3,COc1cccc(S(=O)(=O)N2CCCN(C)c3ccccc32)c1,976 s
4,COc1cnc(NS(=O)(=O)c2ccc(N)cc2)nc1,675 s
5,CC(C)(C)c1ccc(-c2csc(N)n2)cc1,666 s
6,Cc1nccn1CCC(C(N)=O)(c1ccccc1)c1ccccc1,688 s
7,Cc1ccc(NC(=O)c2cc(C(C)C)n3nccc3n2)c(C)c1,1200 s
8,O=C(NCCn1cc(SCC(=O)N2CCOCC2)c2ccccc21)c1ccc(F)cc1,733 s
9,CNC(=O)C1CCCN(c2nc3ncn(CC(=O)Nc4ccc(Cl)cc4)c(=O)c3s2)C1 (stereo not drawn),685 s
10,Cc1ccccc1OCC(=O)N1CCN(c2nc(CN3CCOCC3)cs2)CC1,653 s
11,Cc1ccc(-c2nc(C3CC(=O)N(c4ccc(F)c(Cl)c4)C3)no2)c(C)c1 (stereo not drawn),1250 s
12,NS(=O)(=O)c1ccc(CCNC(=O)CCCn2cccc2)cc1,627 s
13,O=C(Nc1nnc(C2CC(=O)N(c3ccc(F)cc3)C2)o1)c1ccc(Br)cc1 (stereo not drawn),783 s
14,O=C(Cn1c(=O)c(=O)n(Cc2ccc(Cl)cc2)c2ccccc21)N1CCN(c2ccccn2)CC1,654 s
15,COC(=O)c1c(C)c(C(=O)C(C)N(C(=O)c2ccc(F)cc2)C(C)C)c(C)n1C (stereo not drawn),922 s
16,Cc1ccc(-c2nnc(N3CCC(C(=O)NCCN4CCCCC4C)CC3)o2)cc1 (stereo not drawn),624 s
17,CCC1=C(c2ccc(C)cc2)S(=O)(=O)N=C1N1CCC(C(=O)N(C)Cc2ccco2)CC1,894 s
18,CCOC(=O)c1csc(-n2nc(C(F)(F)F)cc2-c2ccc(OC)cc2)n1,1280 s
19,CC(=O)NCCCOc1ccc([N+](=O)[O-])cc1Cl,786 s
20,Cc1ccc(-c2cc(C(=O)N3CCC(NC(=O)c4cccs4)CC3)[nH]n2)c(C)c1,763 s
21,CCC(C)(C)C(=O)N1CCCN(C2=NS(=O)(=O)C(c3ccc(C)cc3)=C2C)CC1,915 s
22,CCN1C(=O)c2cc(S(=O)(=O)Nc3ccccc3)ccc2Oc2cccnc21,959 s

row,Compound,RP-LC retention time
1,Cc1cc(-c2nnc(C3CC3)o2)c(C)n1CC(=O)Nc1cccc(F)c1,825 s
2,COc1ccc(Cl)cc1NS(=O)(=O)c1cc2c(s1)CCN(C(=O)C1CCC1)C2,973 s
3,Cc1ccc2nc(C(=O)N3CCC(C)CC3)cc(Nc3ccc(N(C)C)cc3)c2c1,745 s
4,CCOC(=O)CC1(NC(=O)N2CCc3c(c(C(=O)N4CCCC4)nn3C)C2)CCCCC1,764 s
5,N#Cc1cccc(NC(=O)Cn2cccc(-c3nc(-c4ccccc4)no3)c2=O)c1,828 s
6,CCn1cc(S(=O)(=O)N2CCC(c3noc(COCC4CC4)n3)CC2)cn1,841 s
7,CN[C@@H](C)C(=O)N[C@H](C(=O)N1CCC[C@H]1c1nc(C(=O)c2ccc(F)cc2)cs1)C1CCCCC1,787 s
8,COc1ccc(NC(=O)N2[C@H]3CC[C@@H]2c2cncnc2C3)cc1F,649 s
9,COc1ccc(-c2nc(C3CC(=O)N(c4ccc(F)c(Cl)c4)C3)no2)cc1 (stereo not drawn),1050 s
10,Cc1c(-c2noc(-c3ccc4cc[nH]c4c3)n2)nnn1Cc1ccccc1,1010 s
11,CCc1nc2cc(-c3noc(-c4ccccc4C)n3)ccc2o1,1280 s
12,CCN1C(=O)COc2ccc(-c3noc(Cc4ccc(OC)c(OC)c4)n3)cc21,923 s
13,COc1cccc(NC(=O)C2CCCN(c3ncnc4oc(C)c(C)c34)C2)c1 (stereo not drawn),891 s
14,Cc1cc(=O)n(CC(=O)Nc2ccc(F)c(Cl)c2)c(N2CCOCC2)n1,677 s
15,O=C(NCc1csc(C2CCN(C(=O)c3ccc(F)cc3F)CC2)n1)C1CC1,697 s
16,O=C(CCn1cnc2cc(-c3noc(-c4ccc(F)c(F)c4)n3)ccc21)N1CCOCC1,740 s
17,O=C(NC1CCCCCC1)C1CCN(S(=O)(=O)c2cc(-c3noc(C4CC4)n3)cs2)CC1,1040 s
18,CC1CCN(C(=O)CCC(=O)N2CCN(c3nc4cccnc4s3)CC2)CC1,688 s
19,Cn1c(CN2CCN(C(=O)NC(C)(C)C)CC2)nc2cc(C(=O)N3CCCC3)ccc21,602 s
20,Cc1ccccc1-c1noc(Cc2nnc(-c3cccc(Cl)c3)o2)n1,1140 s
21,O=C(NCc1c(F)cccc1F)C(=O)Nc1ccccc1Cl,971 s
22,O=C(NCCc1c[nH]c2ccccc12)C1CC(=O)N(Cc2ccccc2)C1 (stereo not drawn),736 s

# Reference: the METLIN SMRT retention time set (Domingo-Almenara et al. 2019)
